{"source": "patent US7683048B2", "about": "“Polymorphis of a known thiophenecarboxylic acid dodecahydrocyclopenta (a) phenanthrenyl ester” (Novartis AG, priority 2002, dated 2010)", "assay_type_in_all_cases": "physicochemical", "key": {"[1]": {"assay": "Stability of crystal forms after 4 weeks at 80° C., analyzed by XRPD", "details": "for Crystal form found by XRPD after storage (stability): 4 weeks at 80° C.; for Conversion in the solid state on storage: stored for 4 weeks at 80° C.", "description": "Samples of the compound of formula I in crystal form A, the compound of formula I in crystal form B, a mixture of both crystal forms and an amorphous form of the compound of formula I (obtained by spray drying) are stored for 4 weeks at 80° C. under different conditions and analyzed by X-ray powder diffraction (XRPD)."}, "[2]": {"assay": "Heat of solution at 25° C. in acetone", "description": "The heat of solution of samples of crystal forms A and B of the compound of formula I are measured at 25° C. in acetone."}, "[3]": {"assay": "Interconversion of crystal forms in the presence of solvent"}}}
{"smiles": "COC(=O)[C@@]1(OC(=O)c2sccc2C)[C@H](C)CC2C3C[C@H](F)C4=CC(=O)C=C[C@]4(C)[C@@]3(Cl)[C@@H](O)C[C@@]21C", "note": "(stereo partly drawn) [Crystal forms A + B, 3-methylthiophene-2-carboxylic acid (6S,9R,10S,11S, 13S,16R,17R)-9-chloro-6-fluoro-11-hydroxy-17-methoxycarbonyl-10,13,16-trimethyl-3-oxo-6,7,8,9,10,11,12,13,14,15,16,17-dodecahydro-3H-cyclopenta[a]phenanthren-17-yl ester]", "values": [{"measurement": "Crystal form found by XRPD after storage (stability)", "setting": "[1]; N2", "result": "A + B"}, {"measurement": "Crystal form found by XRPD after storage (stability)", "setting": "[1]; sealed", "result": "A + B"}]}
{"smiles": "COC(=O)[C@@]1(OC(=O)c2sccc2C)[C@H](C)CC2C3C[C@H](F)C4=CC(=O)C=C[C@]4(C)[C@@]3(Cl)[C@@H](O)C[C@@]21C", "note": "(stereo partly drawn) [Crystal form B, 3-methylthiophene-2-carboxylic acid (6S,9R,10S,11S, 13S,16R,17R)-9-chloro-6-fluoro-11-hydroxy-17-methoxycarbonyl-10,13,16-trimethyl-3-oxo-6,7,8,9,10,11,12,13,14,15,16,17-dodecahydro-3H-cyclopenta[a]phenanthren-17-yl ester]", "values": [{"measurement": "Crystal form found by XRPD after storage (stability)", "setting": "[1]; 75% r.h. (relative humidity), open", "result": "A + B"}, {"measurement": "Crystal form found by XRPD after storage (stability)", "setting": "[1]; N2 + 2% water", "result": "A + B"}, {"measurement": "Crystal form found by XRPD after storage (stability)", "setting": "[1]; O2", "result": "A + B"}, {"measurement": "Conversion in the solid state on storage", "setting": "[1]; solid state, listed as crystal form B", "result": "can convert at least partially in the solid state into crystal form A"}, {"measurement": "Heat of solution", "setting": "[2]; listed as B", "result": 17.9, "unit": "J/g"}, {"measurement": "Conversion of crystal form in the presence of isopropanol", "setting": "[3]; in the presence of isopropanol", "result": "converts to crystal form A"}]}
{"smiles": "COC(=O)[C@@]1(OC(=O)c2sccc2C)[C@H](C)CC2C3C[C@H](F)C4=CC(=O)C=C[C@]4(C)[C@@]3(Cl)[C@@H](O)C[C@@]21C", "note": "(stereo partly drawn) [Crystal form A, 3-methylthiophene-2-carboxylic acid (6S,9R,10S,11S, 13S,16R,17R)-9-chloro-6-fluoro-11-hydroxy-17-methoxycarbonyl-10,13,16-trimethyl-3-oxo-6,7,8,9,10,11,12,13,14,15,16,17-dodecahydro-3H-cyclopenta[a]phenanthren-17-yl ester]", "values": [{"measurement": "Relative thermodynamic stability (from storage test)", "setting": "[1]; solid state, versus crystal form B", "result": "more thermodynamically stable than crystal form B"}, {"measurement": "Heat of solution", "setting": "[2]; listed as A", "result": 29.3, "unit": "J/g"}, {"measurement": "Relative thermodynamic stability (from heat of solution)", "setting": "[2]; versus crystal form B", "result": "more thermodynamically stable than crystal form B"}, {"measurement": "Conversion of crystal form in the presence of ethanol", "setting": "[3]; in the presence of ethanol", "result": "converts to crystal form B"}]}
{"smiles": "COC(=O)[C@@]1(OC(=O)c2sccc2C)[C@H](C)CC2C3C[C@H](F)C4=CC(=O)C=C[C@]4(C)[C@@]3(Cl)[C@@H](O)C[C@@]21C", "note": "(stereo partly drawn) [Amorphous form, 3-methylthiophene-2-carboxylic acid (6S,9R,10S,11S, 13S,16R,17R)-9-chloro-6-fluoro-11-hydroxy-17-methoxycarbonyl-10,13,16-trimethyl-3-oxo-6,7,8,9,10,11,12,13,14,15,16,17-dodecahydro-3H-cyclopenta[a]phenanthren-17-yl ester]", "values": [{"measurement": "Conversion in the solid state on storage", "setting": "[1]; solid state, listed as amorphous form", "result": "can also convert into crystal form A"}]}
